Reference: patent publication US8802638B1, “Flavonoid treatment of glycogen synthase kinase-based disease” (University of South Florida, priority 2007, dated 2014)

What was measured:
β-catenin = β-catenin after luteolin treatment; assay type: cell-based; conditions: data not shown
GSK-3α/β [1] = experiment: Western blot of phosphorylated GSK-3α/β forms in SweAPP N2a cells; assay type: cell-based, murine; conditions: 20 μM
Experimental: (§1) Cultured cells or mouse brain were lysed in ice-cold lysis buffer described above, and an aliquot corresponding to 50 μg of total protein was electrophoretically separated using 12% Tris-HCl or 16.5% Tris-tricine gels. Electrophoresed proteins were then transferred to PVDF membranes, washed in dH2O, and blocked for 1 hr at ambient temperature in Tris-buffered saline (TBS; Bio-Rad) containing 5% (w/v) non-fat dry milk. After blocking, membranes were hybridized for 1 hr at ambient temperature with various primary antibodies. Membranes were then washed 3× for 5 min each in dH2O and incubated for 1 hr at ambient temperature with the appropriate HRP-conjugated secondary antibody (1:1,000). Antibodies were obtained against the amino-terminus and carboxyl-terminus of PS1 (Chemicon, Temecula, Calif.), amino-terminus and carboxyl-terminus of APP (22C11), actin (Roche, Basel, Switzerland), Aβ (6E10, 48G) (Signet Laboratories, Dedham, Mass.), phosphor-GSK3α (ser^21, clone BK202) (Upstate, Lake Placid, N.Y.), phospho-GSK3α/β (pTyr^279/216) (Sigma), phospho-GSK-3β (Ser^9) (Sigma) and total GSK-3α/β (Sigma). All antibodies were diluted in TBS containing 5% (w/v) of non-fat dry milk. Blots were developed using the luminol reagent (Pierce Biotechnology). Densitometric analysis was done as previously described using a FluorS Multiimager with Quantity One™ software (39). […] Antibodies used for Western blot included the APP-carboxyl-terminal antibody (1:50)), amino-terminal APP antibody (clone 22C11), or 6E10 (1:1,000), or actin antibody (1:1,500; as an internal reference control). γ-secretase activity was quantified in cell lysates using available kits based on secretase-specific peptides conjugated to fluorogenic reporter molecules.
The effect luteolin had on a variety of proteins related to and/or required for proper functioning of the γ-secretase complex was evaluated to establish the mechanism whereby luteolin modulates γ-secretase activity and subsequent Aβ generation. […]

SweAPP N2a cells = experiment: APP proteolysis (Aβ ELISA, IP, APP CTF Western blot) in SweAPP N2a cells; assay type: cell-based, murine
Experimental: Cultured cells or mouse brain were lysed in ice-cold lysis buffer described above, and an aliquot corresponding to 50 μg of total protein was electrophoretically separated using 12% Tris-HCl or 16.5% Tris-tricine gels. Electrophoresed proteins were then transferred to PVDF membranes, washed in dH2O, and blocked for 1 hr at ambient temperature in Tris-buffered saline (TBS; Bio-Rad) containing 5% (w/v) non-fat dry milk. After blocking, membranes were hybridized for 1 hr at ambient temperature with various primary antibodies. Membranes were then washed 3× for 5 min each in dH2O and incubated for 1 hr at ambient temperature with the appropriate HRP-conjugated secondary antibody (1:1,000). Antibodies were obtained against the amino-terminus and carboxyl-terminus of PS1 (Chemicon, Temecula, Calif.), amino-terminus and carboxyl-terminus of APP (22C11), actin (Roche, Basel, Switzerland), Aβ (6E10, 48G) (Signet Laboratories, Dedham, Mass.), phosphor-GSK3α (ser^21, clone BK202) (Upstate, Lake Placid, N.Y.), phospho-GSK3α/β (pTyr^279/216) (Sigma), phospho-GSK-3β (Ser^9) (Sigma) and total GSK-3α/β (Sigma). All antibodies were diluted in TBS containing 5% (w/v) of non-fat dry milk. Blots were developed using the luminol reagent (Pierce Biotechnology). Densitometric analysis was done as previously described using a FluorS Multiimager with Quantity One™ software (39). Immunoprecipitation was performed for detection of sAPP-α, sAPP-β and Aβ by incubating 200 μg of total protein of each sample with various sequential combinations of 6E10 (1:100) and/or 22C11 (1:100) antibodies overnight with gentle rocking at 4° C., and 10 μL of 50% protein A-Sepharose beads were then added to the sample (1:10; Sigma) prior to gentle rocking for an additional 4 hrs at 4° C. Following washes with 1× cell lysis buffer, samples were subjected to Western blot as described above. Antibodies used for Western blot included the APP-carboxyl-terminal antibody (1:50)), amino-terminal APP antibody (clone 22C11), or 6E10 (1:1,000), or actin antibody (1:1,500; as an internal reference control). γ-secretase activity was quantified in cell lysates using available kits based on secretase-specific peptides conjugated to fluorogenic reporter molecules.
SweAPP N2a cells and primary neuronal cells derived from Tg2576 mice were treated with varying doses of luteolin to examine luteolin's effect on APP proteolysis. Cellular extracts were collected and analyzed using immunoprecipitation (IP), Western blot, and ELISA. […] See FIGS. 1 through 2(B) and 5 through 6(B). SweAPP N2a and primary Tg2576-derived neuronal cells CTF profiles were analyzed following luteolin treatment to determine at which level luteolin impacts amyloid processing.

[2] = cited from earlier work
GSK-3α/β [3] = experiment: GSK-3 activation in brain homogenates of luteolin-treated Tg2576 mice; assay type: in vivo; conditions: 20 mg/kg i.p. daily for 30 days
Experimental: Sixteen (8♂/8♀) Tg2576 mice (Taconic, Germantown, N.Y.) were used; 8 mice received luteolin, and the other 8 received phosphate buffered saline (PBS). Beginning at 8 months of age, Tg2576 mice were intraperitoneally injected with luteolin (20 mg/kg) or PBS daily for 30 days based on previously described methods. These mice were then sacrificed at 9 months of age for analyses of Aβ levels and Aβ load in the brain according to previously described methods. Animals were housed and maintained in the College of Medicine Animal Facility at the University of South Florida (USF), and all experiments were in compliance with protocols approved by the USF Institutional Animal Care and Use Committee.
Cultured cells or mouse brain were lysed in ice-cold lysis buffer described above, and an aliquot corresponding to 50 μg of total protein was electrophoretically separated using 12% Tris-HCl or 16.5% Tris-tricine gels. […] Densitometric analysis was done as previously described using a FluorS Multiimager with Quantity One™ software (39). […] Antibodies used for Western blot included the APP-carboxyl-terminal antibody (1:50)), amino-terminal APP antibody (clone 22C11), or 6E10 (1:1,000), or actin antibody (1:1,500; as an internal reference control). γ-secretase activity was quantified in cell lysates using available kits based on secretase-specific peptides conjugated to fluorogenic reporter molecules. […]

GSK-3α/β [4] = target: GSK-3α/β (Mus musculus, UniProt Q2NL51); experiment: Western blot of phosphorylated GSK-3α/β forms in SweAPP N2a cells; assay type: cell-based, murine; parameters: endogenous in cells; host or cells: SweAPP N2a cells; conditions: 20 μM
Sequence of GSK-3α/β (Mus musculus, UniProt Q2NL51) (Q2NL51 2-490): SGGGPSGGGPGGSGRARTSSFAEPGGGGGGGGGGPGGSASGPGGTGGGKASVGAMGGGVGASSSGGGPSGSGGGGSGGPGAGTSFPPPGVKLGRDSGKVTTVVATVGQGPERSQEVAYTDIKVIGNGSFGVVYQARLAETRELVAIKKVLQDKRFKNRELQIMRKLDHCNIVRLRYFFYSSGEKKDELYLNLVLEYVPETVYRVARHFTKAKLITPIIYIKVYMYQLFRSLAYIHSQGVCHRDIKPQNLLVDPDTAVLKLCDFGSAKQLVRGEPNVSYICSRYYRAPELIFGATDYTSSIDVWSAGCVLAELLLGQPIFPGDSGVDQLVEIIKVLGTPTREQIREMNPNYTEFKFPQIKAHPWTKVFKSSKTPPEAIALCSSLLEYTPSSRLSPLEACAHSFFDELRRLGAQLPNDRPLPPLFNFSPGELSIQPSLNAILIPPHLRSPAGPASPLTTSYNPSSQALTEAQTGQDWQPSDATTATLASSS
Experimental: as §1, with “Antibodies were obtained against the amino-terminus and carboxyl-terminus of PS1 (Chemicon, Temecula, Calif.), amino-terminus and carboxyl-terminus of APP (22C11), actin (Roche, Basel, Switzerland), Aβ (6E10, 48G) (Signet Laboratories, Dedham, Mass.), phosphor-GSK3α (ser^21, clone BK202) (Upstate, Lake Placid, N.Y.), phospho-GSK3α/β (pTyr^279/216) (Sigma), phospho-GSK-3β (Ser^9) (Sigma) and total GSK-3α/β (Sigma). All antibodies were diluted in TBS containing 5% (w/v) of non-fat dry milk. Blots were developed using the luminol reagent (Pierce Biotechnology).” left out, “molecules. […]” for “molecules.”

levels of serine 21-phosphorylated, inactive GSK-3α isoforms (GSK-3α/β [4]; SweAPP N2a cells): increased the levels
SMILES: O=c1cc(-c2ccc(O)c(O)c2)oc2cc(O)cc(O)c12 [luteolin]
β-catenin (β-catenin): remains unaffected
overall expression of GSK3-α or β (GSK-3α/β [1]; Western blot): no significant changes
selectivity of GSK-3α over GSK-3β inactivation (GSK-3α/β [1]; time course): selectively inactivates GSK-3α isoforms over β isoforms
accumulation of both α and β CTFs (increase over control) (SweAPP N2a cells; dose dependent, 12 hrs, Western blot densitometry, SweAPP N2a cells): 2-3 fold
Aβ1-40, 42 peptide generation abrogated (SweAPP N2a cells; luteolin 20 μM, 12 hrs, SweAPP N2a cells): > 70%
Aβ1-40, 42 peptide generation abrogated (SweAPP N2a cells; luteolin 40 μM, 12 hrs, SweAPP N2a cells): > 85%
Aβ1-40, 42 production (SweAPP N2a cells; result in words, ELISA/IP/Western blot): effectively reduced Aβ1-40, 42 production in either cell line in a dose dependent manner
half-life in plasma ([2]; in vivo): < 4 h
oral bioavailability ([2]; oral): < 2%
GSK-3α/β active isoforms (ratio of phosphorylated to holo GSK-3) (GSK-3α/β [3]): reduced when compared to control
levels of tyrosine 279 phosphorylated active GSK-3α isoforms (GSK-3α/β [4]; through 3 hrs (FIGS. 13 and 17)): concurrently decreased in time-dependent manner
